Assay results taken from patent US6936270B2, “Device and method for treating conditions of a joint” (Control Delivery Systems, Inc., priority 2000, dated 2005).

How the values were obtained:
[1] = Plasma concentration of fluocinolone acetonide after FA screw implant in the stifle joint of sheep; type: in vivo, Ovis aries (Sheep); details: intra-articular FA screw implants in the stifle joint, FIG. 1
Text: (§1) The objective of this study was to determine both the local and systemic pharmacokinetic profile of an intra-articular fluocinolone acetonide (FA screw) implant in the stifle joint of sheep. The animals underwent surgical implantation of the FA Screw test device in the stifle joint on Day 1. Following a recovery period, blood and synovial fluid were collected periodically for pharmacokinetic determination. Following completion of a 24 month observation period, the animals were euthanized and subjected to necropsy.
(§2) Devices were administered once via surgical implantation on Day 1.
(§3) The implant was a polymer-coated, sustained-release delivery system for Fluocinolone Acetonide (FA). The implant contained 55 mg of FA and was designed to deliver the drug for approximately 3 years. The tablet core contained approximately 55 mg of FA granulated with 10% PVA. The tablet core was positioned and adhered via an adhesive, such as a silicone adhesive, in the interchangeable head of the bone screw. The overall device geometry was that of a cancellous bone screw (i.e. the base) in which the head of the screw has been hollowed out to accept a removable cup (i.e. the payload) containing the drug tablet. In this embodiment, the screw was approximately 11/16″ in length and is no more than ¼″ at its widest point (i.e. the screw head), The payload was sized to fit into the screw and to accommodate the tablet. […]

[2] = Synovial fluid concentration of fluocinolone acetonide after FA screw implant in the stifle joint of sheep; type: in vivo, Ovis aries (Sheep); details: at three and eight weeks, FIG. 1
Text: as §1, §2, §3

Plasma levels [1]: 0 to 0.35 ng/mL | increase in FA concentrations in the synovial fluid [2]: three-fold increase
Structure (SMILES): CC1(C)O[C@@H]2C[C@H]3[C@@H]4C[C@H](F)C5=CC(=O)C=C[C@]5(C)[C@@]4(F)[C@@H](O)C[C@]3(C)[C@]2(C(=O)CO)O1 [Fluocinolone Acetonide]
